The values that follow come from US9682061B2, “Methods of treating bacterial infections using oritavancin” (THE MEDICINES COMPANY, priority 2009, dated 2017).

Molecules are shown by their SMILES. In brackets after ≈: the same amount, converted by molar mass. Where two headings read alike, the source gives them in different places.

The test system of one data set is S. aureus ATCC 29213. Description: Broth microdilution MIC with arithmetic drug dilutions. Format: cell-based, Staphylococcus aureus. Conditions: for MIC: Staphylococcus aureus, ATCC29213, mean. As for the experimental part:
(§1) Pooled sera from humans, mice and rats were obtained from Equitech-Bio (Kerrville, Tex.); pooled serum from beagle dogs was from Bioreclamation (Liverpool, N.Y.). ULTRA was prepared using Centricon Plus-50 ultrafilters (Millipore, Billerica, Mass.), whose molecular weight cutoff (50 kDa) excludes albumin. ORI stock solutions were prepared following CLSI M100-818 (Clinical and Laboratory Standards Institute. 2008. CLSI document M100-S18). Staphylococcus aureus ATCC 29213 was used as the test isolate at a final inoculum of ˜5×10^5 CFU/mL in both MIC and AUIC studies.
Arithmetic MICs: Broth microdilution MIC assays with Staphylococcus aureus ATCC 29213 were based on CLSI guidelines (Clinical and Laboratory Standards Institute, 2009, CLSI document M7-A7). Growth media were 95% serum:5% CAMHB and 95% serum ultrafiltrate:5% CAMHB. Arithmetic dilutions of oritavancin and comparators were used to increase precision of minimum inhibitory concentration (MIC) values relative to doubling dilutions. Percent binding in serum was calculated as follows: % Bound=(1−[mean MICultrafiltrate/mean MICserum]×100%
On the technique in general: Broth dilution looks for growth in wells or tubes with falling amounts of substance.

The next data set relates to human serum protein. As to the kind of experiment: Serum protein binding estimated from MIC shift, serum vs serum ultrafiltrate (human). The class given is in vitro ADME. Conditions: from mean MICs, broth microdilution, this study.
Description: (§2) Avid binding of oritavancin (ORI) to filtration and dialysis membranes renders most protein binding methodologies unsuitable. To control for any impact of serum components on bacterial growth and antibiotic activity, MIC shifts (from arithmetic drug dilutions) and area under the inhibitory curve (AUIC) shifts (from time-kill assays) were quantified in the presence of serum (SER) compared to SER ultrafiltrate (ULTRA; free of albumin) to estimate ORI binding to serum. In this manner, the extent of reduction in oritavancin activity in serum was related to its degree of serum protein binding. The method was benchmarked using daptomycin and ceftriaxone (Lee et al., Antimicrob Agents Chemother. 35:2505-2508 (1991); Schmidt et al., Antimicrob Agents Chemother. 52:3994-4000 (2008); Yuk et al., Clin Pharmacokinet. 17:223-235 (1989); McKay et al., Evaluation of oritavancin activity in vitro in the presence of human and mouse serum, abstr P1854. Abstr. 19th European Congress of Clinical Microbiology and Infectious Diseases. European Society of Clinical Microbiology and Infectious Diseases, Basel, Switzerland, May 16, 2009).
as §1
(§3) Arithmetic MICs: Broth microdilution MIC assays with Staphylococcus aureus ATCC 29213 were based on CLSI guidelines (Clinical and Laboratory Standards Institute, 2009, CLSI document M7-A7). Growth media were 95% serum:5% CAMHB and 95% serum ultrafiltrate:5% CAMHB. […] Percent binding in serum was calculated as follows: % Bound=(1−[mean MICultrafiltrate/mean MICserum]×100%

A short description of data set [1]: Serum protein binding estimated from MIC shift, serum vs serum ultrafiltrate (mouse). Format: in vitro ADME. To be noted: pooled mouse serum compared with serum ultrafiltrate; mouse serum; from mean MICs, broth microdilution; this study; read-out: % Bound (protein binding estimate) (converted).
Description: as §2, §1, §3

For another data set, the system named is rat serum protein. Description: Serum protein binding estimated from MIC shift, serum vs serum ultrafiltrate (rat). Conditions: from mean MICs, broth microdilution, this study. Format: in vitro ADME.
Description: as §2, §1, §3

For a further data set, the system named is beagle dog serum protein. Description: Serum protein binding estimated from MIC shift, serum vs serum ultrafiltrate (dog). The class given is in vitro ADME. Conditions: from mean MICs, broth microdilution, this study.
Description: as §2, §1, §3

A short description of data set [2]: Serum protein binding from MIC shift, summary across species. The class given is in vitro ADME, human, mouse, rat, dog. Conditions: pooled serum compared with serum ultrafiltrate; serum from mouse, rat, and beagle dog; MIC shift; read-out: Serum protein binding estimates, range.
Description: as §2, §1, §3

A further data set deals with human serum. Conditions: cited from earlier work.
A further data set relates to mouse serum protein. Description: Serum protein binding estimated from MIC shift, serum vs serum ultrafiltrate (mouse). Format: in vitro ADME. To be noted: mouse, serum.
Description: as §2, §1, §3

Another data set concerns plasma protein. To be noted: across tested species; Shaw et al. 2008; cited from earlier work.
Setting [3] is: 95% dog serum + 5% CAMHB, read-out: MIC, Serum.
The mark [4] stands for this setting: 95% dog serum ultrafiltrate + 5% CAMHB, read-out: MIC, Ultrafiltrate.
[5] abbreviates: 95% human serum + 5% CAMHB, read-out: MIC, Serum.
The mark [6] stands for this setting: 95% human serum ultrafiltrate + 5% CAMHB, read-out: MIC, Ultrafiltrate.
[7] abbreviates: 95% mouse serum + 5% CAMHB, read-out: MIC, Serum.
Where [8] appears, read: 95% mouse serum ultrafiltrate + 5% CAMHB, read-out: MIC, Ultrafiltrate.
Where [9] appears, read: 95% rat serum + 5% CAMHB, read-out: MIC, Serum.
The mark [10] stands for this setting: 95% rat serum ultrafiltrate + 5% CAMHB, read-out: MIC, Ultrafiltrate.
The mark [11] stands for this setting: cation-adjusted Mueller-Hinton broth, CLSI conditions, Dog, read-out: MIC, CAMHB.
The mark [12] stands for this setting: cation-adjusted Mueller-Hinton broth, CLSI conditions, Human, read-out: MIC, CAMHB.
Where [13] appears, read: cation-adjusted Mueller-Hinton broth, CLSI conditions, Mouse, read-out: MIC, CAMHB.
Where [14] appears, read: cation-adjusted Mueller-Hinton broth, CLSI conditions, Rat, read-out: MIC, CAMHB.
[15] abbreviates: mean MIC in 95% dog serum / mean MIC in 95% dog serum ultrafiltrate.
Setting [16] is: mean MIC in 95% human serum / mean MIC in 95% human serum ultrafiltrate.
[17] abbreviates: mean MIC in 95% mouse serum / mean MIC in 95% mouse serum ultrafiltrate.
Setting [18] is: mean MIC in 95% rat serum / mean MIC in 95% rat serum ultrafiltrate.

In the case of `CO/N=C(\C(=O)N[C@@H]1C(=O)N2C(C(=O)O)=C(CSc3nc(=O)c(=O)[nH]n3C)CS[C@H]12)c1csc(N)n1` [Ceftriaxone], the MIC was 1.38 µg/mL in the data set with S. aureus ATCC 29213 (setting [3]); 1.09 µg/mL in the data set with S. aureus ATCC 29213 (setting [4]); 38.8 µg/mL in the data set on S. aureus ATCC 29213 (setting [5]); 2.88 µg/mL in the data set on S. aureus ATCC 29213 (setting [6]); 6 µg/mL in the data set on S. aureus ATCC 29213 (setting [7]); 3.75 µg/mL in the data set on S. aureus ATCC 29213 (setting [8]). Besides, the MIC with S. aureus ATCC 29213 (setting [9]) is 5.88 µg/mL; with S. aureus ATCC 29213 (setting [10]) it was 3.88 µg/mL; with S. aureus ATCC 29213 (setting [11]), 5.25 µg/mL (≈ 9.47 µM); in the data set with S. aureus ATCC 29213 (setting [12]), 4.88 µg/mL (≈ 8.8 µM); in the data set on S. aureus ATCC 29213 (setting [13]), 5 µg/mL (≈ 9.02 µM); in the data set on S. aureus ATCC 29213 (setting [14]), 3.5 µg/mL (≈ 6.31 µM). Also, the “Mean Fold MIC Increase” value with S. aureus ATCC 29213 (setting [15]) was determined as 1.3 fold; in the data set on S. aureus ATCC 29213 (setting [16]), 13.5 fold; in the data set on S. aureus ATCC 29213 (setting [17]), 1.6 fold; in the data set with S. aureus ATCC 29213 (setting [18]), 1.5 fold. Further, the “% Bound (protein binding estimate)” value is reported as 92.6% in the data set on human serum protein, 34.0% in the data set with rat serum protein and 20.9% in the data set with beagle dog serum protein. Further, the results for the fraction unbound in data set [1] and in data set [2] were 0.625 and 0.625 to 0.791, respectively. Further, the “Binding estimate from in vitro microdialysis” value in the data set on human serum is listed as 76.8%.

`CCCCCCCCCC(=O)N[C@@H](Cc1c[nH]c2ccccc12)C(=O)N[C@H](CC(N)=O)C(=O)N[C@@H](CC(=O)O)C(=O)N[C@@H]1C(=O)NCC(=O)N[C@@H](CCCN)C(=O)N[C@@H](CC(=O)O)C(=O)N[C@H](C)C(=O)N[C@@H](CC(=O)O)C(=O)NCC(=O)N[C@H](CO)C(=O)N[C@@H]([C@H](C)CC(=O)O)C(=O)N[C@@H](CC(=O)c2ccccc2N)C(=O)O[C@@H]1C` [Daptomycin]: the MIC stood at 2.5 µg/mL with S. aureus ATCC 29213 (setting [3]); 0.638 µg/mL with S. aureus ATCC 29213 (setting [4]); 3 µg/mL with S. aureus ATCC 29213 (setting [5]); 0.513 µg/mL in the data set with S. aureus ATCC 29213 (setting [6]); 12.5 µg/mL with S. aureus ATCC 29213 (setting [7]); 3 µg/mL in the data set with S. aureus ATCC 29213 (setting [8]). Also, the MIC in the data set with S. aureus ATCC 29213 (setting [9]) was found to be 1.56 µg/mL; with S. aureus ATCC 29213 (setting [10]) it was 0.538 µg/mL; with S. aureus ATCC 29213 (setting [11]), 1 µg/mL (≈ 0.617 µM); in the data set on S. aureus ATCC 29213 (setting [12]), 0.975 µg/mL (≈ 0.602 µM); in the data set on S. aureus ATCC 29213 (setting [13]), 0.975 µg/mL (≈ 0.602 µM); in the data set on S. aureus ATCC 29213 (setting [14]) it was 1.25 µg/mL (≈ 0.771 µM). Besides, the “Mean Fold MIC Increase” value in the data set on S. aureus ATCC 29213 (setting [15]) amounted to 3.9 fold; with S. aureus ATCC 29213 (setting [16]), 5.8 fold; with S. aureus ATCC 29213 (setting [17]), 4.2 fold; in the data set with S. aureus ATCC 29213 (setting [18]), 2.9 fold. The “% Bound (protein binding estimate)” value in the data set with human serum protein is recorded as 82.9%; in the data set on mouse serum protein it was 76.0%; in the data set on rat serum protein it was 65.6%; in the data set with beagle dog serum protein, 74.5%.

Turning to `CCCCCCCCCCNCCN[C@@]1(C)C[C@H](O[C@H]2[C@H](Oc3c4cc5cc3Oc3ccc(cc3Cl)[C@@H](O)[C@@H](NC(=O)[C@@H](CC(C)C)NC)C(=O)N[C@@H](CC(N)=O)C(=O)N[C@H]5C(=O)N[C@H]3C(=O)N[C@H](C(=O)N[C@H](C(=O)O)c5cc(O)c(CNCP(=O)(O)O)c(O)c5-c5cc3ccc5O)[C@H](O)c3ccc(c(Cl)c3)O4)O[C@H](CO)[C@@H](O)[C@@H]2O)O[C@@H](C)[C@H]1O` [telavancin], in the data set with plasma protein, the Plasma protein binding entry is listed as “approximately 90%”.

By MIC is commonly meant the least concentration at which growth counts as inhibited.
